Data: the supplement of paper PMC5579334
± gives the standard deviation of the averaged measurements.

Tests used:
[1] = tested on: HSC1; assay: relative IC50 (inflection point of fitted dose-response curve, CellTox-Green cytotoxicity, 72 h; top asymptote may be below 50%); higher = less potent
Method in brief: (§1)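 For 72 h at 37 °C, MPNST cell lines and primary human Schwann cells were exposed in 384-well plates to five 10-fold compound dilutions. CellTox-Green, added before seeding at a final 1:1000 dilution, gave fluorescence from DNA released by disrupted cells. Signals were scaled to vehicle and positive-control wells, cultures failing plate quality control were left out, and four-parameter logistic fits were applied. Relative IC50 and drug sensitivity score were derived from the fits, with IC50 censored at the top concentration.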

[2] = tested on: HSC2; assay: as above
Method in brief: as §1

[3] = tested on: STS26T; assay: as above
Method in brief: as §1

[4] = tested on: STS26T; assay: relative IC50 (inflection point of fitted dose-response curve, CellTiter-Glo viability, 72 h; top asymptote may be below 50% inhibition); higher = less potent
Method in brief: (§2)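 After seeding 750–1000 cells per well of MPNST cell lines or primary human Schwann cells into 384-well plates preprinted with each compound at five concentrations in 10-fold steps, plates were kept 72 h at 37 °C, 5% CO2. Viability was read as CellTiter-Glo ATP luminescence relative to vehicle and positive-control wells, with duplicates averaged where present. The data were fitted with four-parameter logistic models. Drug sensitivity score and relative IC50, censored at the top concentration, derive from the fits, and percent inhibition refers to the top concentration.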

[5] = tested on: HS-PSS; assay: relative IC50 (inflection point of fitted dose-response curve, CellTox-Green cytotoxicity, 72 h; top asymptote may be below 50%); higher = less potent
Method in brief: as §1

[6] = tested on: ST8814; assay: as above
Method in brief: as §1

[7] = tested on: HS-PSS; assay: relative IC50 (inflection point of fitted dose-response curve, CellTiter-Glo viability, 72 h; top asymptote may be below 50% inhibition); higher = less potent
Method in brief: as §2

[8] = tested on: HS-Sch-2; assay: as above
Method in brief: as §2

[9] = tested on: HSC1; assay: as above
Method in brief: as §2

[10] = tested on: HSC2; assay: as above
Method in brief: as §2

[11] = tested on: ST8814; assay: as above
Method in brief: as §2

[12] = tested on: YST-1; assay: as above
Method in brief: as §2

[13] = tested on: HS-PSS; assay: drug sensitivity score (DSS, CellTiter-Glo viability, 72 h) (DSS (dimensionless)); higher = more sensitive; extreme values may be limits of the assay
Method in brief: as §2

[14] = tested on: HS-Sch-2; assay: as above
Method in brief: as §2

[15] = tested on: HSC1 (primary human Schwann cells); assay: as above
Method in brief: as §2

[16] = tested on: HSC2 (primary human Schwann cells); assay: as above
Method in brief: as §2

[17] = tested on: S1507-2; assay: as above
Method in brief: as §2

[18] = tested on: S462; assay: as above
Method in brief: as §2

[19] = tested on: ST8814; assay: as above
Method in brief: as §2

[20] = tested on: STS26T; assay: as above
Method in brief: as §2

[21] = tested on: YST-1; assay: as above
Method in brief: as §2

[22] = tested on: HS-PSS; assay: drug sensitivity score (DSS, CellTox-Green cytotoxicity, 72 h) (DSS (dimensionless)); higher = more cytotoxic; extreme values may be limits of the assay
Method in brief: as §1

[23] = tested on: HSC1 (primary human Schwann cells); assay: as above
Method in brief: as §1

[24] = tested on: HSC2 (primary human Schwann cells); assay: as above
Method in brief: as §1

[25] = tested on: S1507-2; assay: as above
Method in brief: as §1

[26] = tested on: ST8814; assay: as above
Method in brief: as §1

[27] = tested on: STS26T; assay: as above
Method in brief: as §1

[28] = tested on: HS-PSS; assay: % inhibition of CellTiter-Glo viability at highest tested concentration (72 h), relative to DMSO and benzethonium chloride controls; higher = more inhibition
Method in brief: as §2

[29] = tested on: HS-Sch-2; assay: as above
Method in brief: as §2

[30] = tested on: HSC1 (primary human Schwann cells); assay: as above
Method in brief: as §2

[31] = tested on: HSC2 (primary human Schwann cells); assay: as above
Method in brief: as §2

[32] = tested on: S1507-2; assay: as above
Method in brief: as §2

[33] = tested on: S462; assay: as above
Method in brief: as §2

[34] = tested on: ST8814; assay: as above
Method in brief: as §2

[35] = tested on: STS26T; assay: as above
Method in brief: as §2

[36] = tested on: YST-1; assay: as above
Method in brief: as §2

Structure (SMILES)	relative IC50 [1]	relative IC50 [2]	relative IC50 [3]	relative IC50 [4]	relative IC50 [5]	relative IC50 [6]	relative IC50 [7]	relative IC50 [8]	relative IC50 [9]	relative IC50 [10]	relative IC50 [11]	relative IC50 [12]	drug sensitivity score [13]	drug sensitivity score [14]	drug sensitivity score [15]	drug sensitivity score [16]	drug sensitivity score [17]	drug sensitivity score [18]	drug sensitivity score [19]	drug sensitivity score [20]	drug sensitivity score [21]	drug sensitivity score [22]	drug sensitivity score [23]	drug sensitivity score [24]	drug sensitivity score [25]	drug sensitivity score [26]	drug sensitivity score [27]	% inhibition [28]	% inhibition [29]	% inhibition [30]	% inhibition [31]	% inhibition [32]	% inhibition [33]	% inhibition [34]	% inhibition [35]	% inhibition [36]
CC1(C)CCC(CN2CCN(c3ccc(C(=O)NS(=O)(=O)c4ccc(NCC5CCOCC5)c([N+](=O)[O-])c4)c(Oc4cnc5[nH]ccc5c4)c3)CC2)=C(c2ccc(Cl)cc2)C1 [ABT-199]	> 10 µM	> 10 µM	> 10 µM	> 10 µM	–	–	–	–	–	–	–	–	–	–	–	–	–	–	–	–	–	–	–	–	–	–	–	–	–	–	–	–	–	–	–	–
CN1CCC(COc2cnc(-c3cccc(Cn4nc(-c5cccc(C#N)c5)ccc4=O)c3)nc2)CC1	> 1 µM	> 1 µM	–	–	> 1 µM	> 1 µM	> 1 µM	> 1 µM	> 1 µM	> 1 µM	> 1 µM	> 1 µM	–	–	–	–	–	–	–	–	–	–	–	–	–	–	–	–	–	–	–	–	–	–	–	–
C[C@]12CC[C@H](O)CC1=CC[C@@H]1[C@@H]2CC[C@]2(C)C(c3cccnc3)=CC[C@@H]12 [Abiraterone]	> 5 µM	> 5 µM	> 5 µM	–	> 5 µM	> 5 µM	> 5 µM	> 5 µM	–	–	> 5 µM	> 5 µM	–	–	–	–	–	–	–	–	–	–	–	–	–	–	–	–	–	–	–	–	–	–	–	–
Cc1cc(Nc2nc(N[C@@H](C)c3ncc(F)cn3)ncc2Cl)[nH]n1 [AZD1480]	> 1 µM	–	–	–	> 1 µM	> 1 µM	–	> 1 µM	0.193 µM	–	–	–	–	–	–	–	–	–	–	–	–	–	–	–	–	–	–	–	–	–	–	–	–	–	–	–
C[C@@H](Oc1cc(-c2cnn(C3CCNCC3)c2)cnc1N)c1c(Cl)ccc(F)c1Cl [Crizotinib]	> 1 µM	> 1 µM	> 1 µM	> 1 µM	> 1 µM	> 1 µM	0.367 µM	–	–	–	> 1 µM	0.393 µM	–	–	–	–	–	–	–	–	–	–	–	–	–	–	–	–	–	–	–	–	–	–	–	–
COc1cc2ncnc(Nc3ccc(F)c(Cl)c3)c2cc1NC(=O)/C=C/CN1CCCCC1 [Dacomitinib]	> 1 µM	> 1 µM	> 1 µM	–	–	> 1 µM	0.144 µM	0.148 µM	–	–	–	> 1 µM	–	–	–	–	–	–	–	–	–	–	–	–	–	–	–	–	–	–	–	–	–	–	–	–
COCC1(CO)C(=O)C2CCN1CC2 (stereo not given) [Prima-1 Met]	> 10 µM	> 10 µM	> 10 µM	–	–	> 10 µM	–	–	0.572 µM	2.14 µM	> 10 µM	–	–	–	–	–	–	–	–	–	–	–	–	–	–	–	–	–	–	–	–	–	–	–	–	–
CCc1c(C(=O)C(N)=O)c2c(OCC(=O)O)cccc2n1Cc1ccccc1 [Varespladib]	> 10 µM	> 10 µM	> 10 µM	> 10 µM	> 10 µM	> 10 µM	> 10 µM	> 10 µM	–	> 10 µM	> 10 µM	> 10 µM	–	–	–	–	–	–	–	–	–	–	–	–	–	–	–	–	–	–	–	–	–	–	–	–
CCN(CC)CCNC(=O)c1c(C)[nH]c(/C=C2\C(=O)Nc3ccc(F)cc32)c1C [Sunitinib]	> 1 µM	> 1 µM	> 1 µM	> 1 µM	> 1 µM	> 1 µM	–	> 1 µM	> 1 µM	> 1 µM	–	> 1 µM	–	–	–	–	–	–	–	–	–	–	–	–	–	–	–	–	–	–	–	–	–	–	–	–
Nc1nc(Cl)nc2c1ncn2[C@H]1C[C@H](O)[C@@H](CO)O1 [Cladribine]	0.35 µM	0.319 µM	–	0.226 µM	–	–	0.366 µM	0.351 µM	0.151 µM	0.174 µM	–	0.321 µM	–	–	–	–	–	–	–	–	–	–	–	–	–	–	–	–	–	–	–	–	–	–	–	–
COc1cc(CCc2cc(NC(=O)c3ccc(N4CC(C)NC(C)C4)cc3)n[nH]2)cc(OC)c1 (stereo not given) [AZD4547]	> 1 µM	> 1 µM	> 1 µM	> 1 µM	> 1 µM	> 1 µM	> 1 µM	0.253 µM	–	–	> 1 µM	> 1 µM	–	–	–	–	–	–	–	–	–	–	–	–	–	–	–	–	–	–	–	–	–	–	–	–
CN(N=O)C(=O)N[C@@H]1[C@@H](O)[C@H](O)[C@@H](CO)O[C@@H]1O [Streptozocin] (max concentration tested 10000 nM)	–	–	–	–	–	–	–	–	–	–	–	–	1.36	0.37	0	0	0	0	0	0	0.32	0	0	0	0.108 ± 0.15	0	0	7.67%	15.2%	-2.68%	-3.21%	-6.55 ± 6.7%	-6.63 ± 1.8%	6.38%	-0.477%	9.13%
CC(C)(C)NC(=O)[C@H]1CC[C@H]2[C@@H]3CC[C@H]4NC(=O)C=C[C@]4(C)[C@H]3CC[C@]12C [Finasteride] (max concentration tested 10000 nM)	–	–	–	–	–	–	–	–	–	–	–	–	0	0	0	0	0	0	0	0	0	0	0	0	0.774 ± 1.1	0	0	4.42%	8.19%	0.189%	0.769%	-1.69 ± 4.2%	2.86 ± 8.6%	6.23%	9.35%	2.29%
O=C(Nc1cccnc1)N1CCC(Cc2cccc(Oc3ccc(C(F)(F)F)cn3)c2)CC1 [PF-3845] (max concentration tested 10000 nM)	–	–	–	–	–	–	–	–	–	–	–	–	7.9	4.52	2.77	3.19	0	0.985 ± 0.1	0.0881	1.18	0.86	0	0	0.053	0	0	0	79.6%	79%	33.5%	35.3%	2.03 ± 3.1%	20.3 ± 0.84%	11.5%	24.2%	25.5%
O=C(O)CCCc1ccc(N(CCCl)CCCl)cc1 [Chlorambucil] (max concentration tested 10000 nM)	–	–	–	–	–	–	–	–	–	–	–	–	0	0	0.621	0.471	0	0	0	0	0.78	0	0	0	0	0	0	3.62%	1.59%	24.7%	21.9%	-14.4 ± 0.28%	-2.04 ± 1.9%	-14.6%	-3.28%	18.1%
CO[C@H]1C[C@@H]2CC[C@@H](C)[C@@](O)(O2)C(=O)C(=O)N2CCCC[C@H]2C(=O)O[C@H]([C@H](C)C[C@@H]2CC[C@@H](OC(=O)C(C)(CO)CO)[C@H](OC)C2)CC(=O)[C@H](C)/C=C(\C)[C@@H](O)[C@@H](OC)C(=O)[C@H](C)C[C@H](C)/C=C/C=C/C=C/1C [Temsirolimus] (max concentration tested 100 nM)	–	–	–	–	–	–	–	–	–	–	–	–	7.73	5.67	17.5	16.5	7.14 ± 2.6	6.03 ± 0.88	6.83	14.4	9.18	0	0	0	0.915 ± 1.3	0	0	30.8%	29.2%	47%	51.2%	28.4 ± 1.3%	31.8 ± 11%	23.2%	47.2%	46.1%
